Assays:
Assay in all cases: relative viability (nuclei count vs DMSO), 5 days (fraction); higher = more cells survive
NCI-H2023 = test system: NCI-H2023
Method in brief: (§1)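 Relative viability was taken as the ratio of nuclei in treated wells to nuclei in vehicle wells. Lung cancer cell lines in 1536-well plates received compounds by pin tool one day after seeding, either one drug alone or a fixed anchor-drug dose plus five library-drug doses (not always all listed) in √10 steps. Nuclei were counted on 4× images after 5 days of treatment, and values are medians of duplicate plates.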

NCI-H2009 = test system: NCI-H2009
Method in brief: as §1

NCI-H23 = test system: NCI-H23
Method in brief: as §1

SK-MES-1 = test system: SK-MES-1
Method in brief: as §1

HOP-62 = test system: HOP-62
Method in brief: as §1

LOU-NH91 = test system: LOU-NH91
Method in brief: as §1

NCI-H2085 = test system: NCI-H2085
Method in brief: as §1

NCI-H322M = test system: NCI-H322M
Method in brief: as §1

ABC-1 = test system: ABC-1
Method in brief: as §1

UMC-11 = test system: UMC-11
Method in brief: as §1

HCC-78 = test system: HCC-78
Method in brief: as §1

NCI-H1792 = test system: NCI-H1792
Method in brief: as §1

ChaGo-K-1 = test system: ChaGo-K-1
Method in brief: as §1

NCI-H1355 = test system: NCI-H1355
Method in brief: as §1

NCI-H1437 = test system: NCI-H1437
Method in brief: as §1

NCI-H1648 = test system: NCI-H1648
Method in brief: as §1

NCI-H727 = test system: NCI-H727
Method in brief: as §1

NCI-H2342 = test system: NCI-H2342
Method in brief: as §1

NCI-H2170 = test system: NCI-H2170
Method in brief: as §1

NCI-H1755 = test system: NCI-H1755
Method in brief: as §1

LCLC-97TM1 = test system: LCLC-97TM1
Method in brief: as §1

RERF-LC-KJ = test system: RERF-LC-KJ
Method in brief: as §1

NCI-H650 = test system: NCI-H650
Method in brief: as §1

NCI-H2405 = test system: NCI-H2405
Method in brief: as §1

CCCCCCCCCCCC1=C(O)C(=O)C=C(O)C1=O [Embelin] + Nc1ncn([C@H]2C[C@H](O)[C@@H](CO)O2)c(=O)n1 [Decitabine] (partner 2 µM)
relative viability (NCI-H2023; first compound 0.08 µM): 0.249
relative viability (NCI-H2023; first compound 0.8 µM): 0.234
relative viability (NCI-H2023; first compound 2.53 µM): 0.247
relative viability (NCI-H2023; first compound 8 µM): 0.155
relative viability (NCI-H2009; first compound 0.08 µM): 0.407
relative viability (NCI-H2009; first compound 0.8 µM): 0.412
relative viability (NCI-H2009; first compound 2.53 µM): 0.369
relative viability (NCI-H2009; first compound 8 µM): 0.351
relative viability (NCI-H23; first compound 0.08 µM): 0.258
relative viability (NCI-H23; first compound 0.8 µM): 0.37
relative viability (NCI-H23; first compound 2.53 µM): 0.329
relative viability (NCI-H23; first compound 8 µM): 0.29
relative viability (SK-MES-1; first compound 0.08 µM): 0.436
relative viability (SK-MES-1; first compound 0.8 µM): 0.396
relative viability (SK-MES-1; first compound 2.53 µM): 0.361
relative viability (SK-MES-1; first compound 8 µM): 0.266
relative viability (HOP-62; first compound 0.08 µM): 0.193
relative viability (HOP-62; first compound 0.8 µM): 0.22
relative viability (HOP-62; first compound 2.53 µM): 0.205
relative viability (HOP-62; first compound 8 µM): 0.19
relative viability (LOU-NH91; first compound 0.08 µM): 0.825
relative viability (LOU-NH91; first compound 0.8 µM): 0.893
relative viability (LOU-NH91; first compound 2.53 µM): 0.852
relative viability (LOU-NH91; first compound 8 µM): 0.801
relative viability (NCI-H2085; first compound 0.08 µM): 0.538
relative viability (NCI-H2085; first compound 0.8 µM): 0.602
relative viability (NCI-H2085; first compound 2.53 µM): 0.531
relative viability (NCI-H2085; first compound 8 µM): 0.504
relative viability (NCI-H322M; first compound 0.08 µM): 0.603
relative viability (NCI-H322M; first compound 0.8 µM): 0.729
relative viability (NCI-H322M; first compound 2.53 µM): 0.813
relative viability (NCI-H322M; first compound 8 µM): 0.754
relative viability (ABC-1; first compound 0.08 µM): 1.02
relative viability (ABC-1; first compound 0.8 µM): 1.11
relative viability (ABC-1; first compound 2.53 µM): 1.04
relative viability (ABC-1; first compound 8 µM): 1.12
relative viability (UMC-11; first compound 0.08 µM): 0.616
relative viability (UMC-11; first compound 0.8 µM): 0.608
relative viability (UMC-11; first compound 2.53 µM): 0.631
relative viability (UMC-11; first compound 8 µM): 0.553
relative viability (HCC-78; first compound 0.08 µM): 0.739
relative viability (HCC-78; first compound 0.8 µM): 0.751
relative viability (HCC-78; first compound 2.53 µM): 0.71
relative viability (HCC-78; first compound 8 µM): 0.675
relative viability (NCI-H1792; first compound 0.08 µM): 0.603
relative viability (NCI-H1792; first compound 0.8 µM): 0.595
relative viability (NCI-H1792; first compound 2.53 µM): 0.615
relative viability (NCI-H1792; first compound 8 µM): 0.519
relative viability (ChaGo-K-1; first compound 0.08 µM): 0.523
relative viability (ChaGo-K-1; first compound 0.8 µM): 0.531
relative viability (ChaGo-K-1; first compound 2.53 µM): 0.507
relative viability (ChaGo-K-1; first compound 8 µM): 0.484
relative viability (NCI-H1355; first compound 0.08 µM): 0.333
relative viability (NCI-H1355; first compound 0.8 µM): 0.394
relative viability (NCI-H1355; first compound 2.53 µM): 0.421
relative viability (NCI-H1355; first compound 8 µM): 0.358
relative viability (NCI-H1437; first compound 0.08 µM): 0.541
relative viability (NCI-H1437; first compound 0.8 µM): 0.623
relative viability (NCI-H1437; first compound 2.53 µM): 0.568
relative viability (NCI-H1437; first compound 8 µM): 0.41
relative viability (NCI-H1648; first compound 0.08 µM): 0.577
relative viability (NCI-H1648; first compound 0.8 µM): 0.549
relative viability (NCI-H1648; first compound 2.53 µM): 0.548
relative viability (NCI-H1648; first compound 8 µM): 0.365
relative viability (NCI-H727; first compound 0.08 µM): 1.02
relative viability (NCI-H727; first compound 0.8 µM): 0.96
relative viability (NCI-H727; first compound 2.53 µM): 1.14
relative viability (NCI-H727; first compound 8 µM): 0.916
relative viability (NCI-H2342; first compound 0.08 µM): 0.71
relative viability (NCI-H2342; first compound 0.8 µM): 0.722
relative viability (NCI-H2342; first compound 2.53 µM): 0.842
relative viability (NCI-H2342; first compound 8 µM): 0.741
relative viability (NCI-H2170; first compound 0.08 µM): 0.514
relative viability (NCI-H2170; first compound 0.8 µM): 0.446
relative viability (NCI-H2170; first compound 2.53 µM): 0.506
relative viability (NCI-H2170; first compound 8 µM): 0.456
relative viability (NCI-H1755; first compound 0.08 µM): 0.767
relative viability (NCI-H1755; first compound 0.8 µM): 0.72
relative viability (NCI-H1755; first compound 2.53 µM): 0.781
relative viability (NCI-H1755; first compound 8 µM): 0.753
relative viability (LCLC-97TM1; first compound 0.08 µM): 0.241
relative viability (LCLC-97TM1; first compound 0.8 µM): 0.264
relative viability (LCLC-97TM1; first compound 2.53 µM): 0.266
relative viability (LCLC-97TM1; first compound 8 µM): 0.235
relative viability (RERF-LC-KJ; first compound 0.08 µM): 0.775
relative viability (RERF-LC-KJ; first compound 0.8 µM): 0.652
relative viability (RERF-LC-KJ; first compound 2.53 µM): 0.774
relative viability (RERF-LC-KJ; first compound 8 µM): 0.514
relative viability (NCI-H650; first compound 0.08 µM): 0.322
relative viability (NCI-H650; first compound 0.8 µM): 0.371
relative viability (NCI-H650; first compound 2.53 µM): 0.337
relative viability (NCI-H650; first compound 8 µM): 0.297
relative viability (NCI-H2405; first compound 0.08 µM): 0.764
relative viability (NCI-H2405; first compound 0.8 µM): 0.89
relative viability (NCI-H2405; first compound 2.53 µM): 0.738
relative viability (NCI-H2405; first compound 8 µM): 0.703

Reference: the supplement of paper PMC10307832
